Experimental data taken from ChEMBL document CHEMBL2321717, “Synthesis of novel estrogen receptor antagonists using metal-catalyzed coupling reactions and characterization of their biological activity” (J Med Chem, 2013).
Calls of active or inactive are those of the source. The calls are words filed in the database; no cut-off is given here.

Key:
[1] = target: Estrogen receptor alpha (Homo sapiens) (UniProt P03372); assay: Agonist activity at ERalpha receptor in human MCF7 cells assessed as stimulation of cell proliferation after 6 days by crystal violet staining method
[2] = target: T1, Estrogen receptor (Homo sapiens, UniProt P03372)
T1 sequence (P03372 whole entry): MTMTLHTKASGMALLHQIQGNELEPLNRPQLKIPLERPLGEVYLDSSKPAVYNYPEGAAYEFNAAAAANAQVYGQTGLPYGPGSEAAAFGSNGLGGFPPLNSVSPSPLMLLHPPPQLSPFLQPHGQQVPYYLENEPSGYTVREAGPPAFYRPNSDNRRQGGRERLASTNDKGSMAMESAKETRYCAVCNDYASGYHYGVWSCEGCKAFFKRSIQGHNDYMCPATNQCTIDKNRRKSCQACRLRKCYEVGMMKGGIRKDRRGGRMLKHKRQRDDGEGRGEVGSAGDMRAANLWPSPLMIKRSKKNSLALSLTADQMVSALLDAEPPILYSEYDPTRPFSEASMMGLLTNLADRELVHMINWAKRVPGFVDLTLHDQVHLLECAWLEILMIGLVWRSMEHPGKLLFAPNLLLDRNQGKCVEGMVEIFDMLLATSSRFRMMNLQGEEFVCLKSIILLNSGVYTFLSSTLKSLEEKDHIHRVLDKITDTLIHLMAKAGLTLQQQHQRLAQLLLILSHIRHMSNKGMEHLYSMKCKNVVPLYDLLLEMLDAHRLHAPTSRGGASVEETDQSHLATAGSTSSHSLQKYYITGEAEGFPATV

[3] = target: Estrogen receptor alpha (Homo sapiens) (UniProt P03372); assay: Agonist activity at ERalpha receptor in human HeLa cells assessed as activation of ERalpha-based transcription at 100 nM after 20 to 24 hrs by luciferase reporter gene assay
[4] = target: Estrogen receptor alpha (Homo sapiens) (UniProt P03372); assay: Agonist activity at LBD of ERalpha receptor in human HeLa cells assessed as induction of receptor-SRC-1 interaction at 100 nM after 20 to 24 hrs by luciferase reporter gene assay
[5] = target: Estrogen receptor beta (Homo sapiens, UniProt Q92731)
Estrogen receptor beta, sequence (Q92731 whole entry): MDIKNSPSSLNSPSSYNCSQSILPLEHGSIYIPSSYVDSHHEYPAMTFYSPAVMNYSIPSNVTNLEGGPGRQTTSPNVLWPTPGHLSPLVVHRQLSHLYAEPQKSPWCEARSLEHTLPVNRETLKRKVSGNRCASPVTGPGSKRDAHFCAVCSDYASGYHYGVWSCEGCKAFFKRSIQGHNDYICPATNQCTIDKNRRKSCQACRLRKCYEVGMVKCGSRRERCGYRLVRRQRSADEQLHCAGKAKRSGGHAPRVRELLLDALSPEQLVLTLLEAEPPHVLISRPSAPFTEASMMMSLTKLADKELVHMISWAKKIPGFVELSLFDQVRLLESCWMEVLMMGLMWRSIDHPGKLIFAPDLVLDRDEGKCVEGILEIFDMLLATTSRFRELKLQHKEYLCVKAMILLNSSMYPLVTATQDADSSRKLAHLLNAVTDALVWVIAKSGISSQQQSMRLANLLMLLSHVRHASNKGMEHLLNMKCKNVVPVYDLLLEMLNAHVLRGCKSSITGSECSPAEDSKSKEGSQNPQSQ

[6] = target: Estrogen receptor alpha (Homo sapiens) (UniProt P03372); assay: Agonist activity at ERalpha receptor in human HepG2 cells assessed as activation of ERalpha-based transcription at 100 nM after 20 to 24 hrs by luciferase reporter gene assay
[7] = target: Estrogen receptor alpha (Homo sapiens) (UniProt P03372); assay: Antagonist activity at ERalpha receptor in human HeLa cells assessed as inhibition of E2-induced response after 20 to 24 hrs by luciferase reporter gene assay
[8] = tested on: MDA-MB-231; assay: Inhibition of cell proliferation in human ERalpha receptor negative MDA-MB-231 cells after 6 days by crystal violet staining method; format: functional, cell-based
[9] = tested on: MDA-MB-231; assay: Stimulation of cell proliferation in human ERalpha receptor negative MDA-MB-231 cells after 6 days by crystal violet staining method; format: functional, cell-based
[10] = target: Estrogen receptor alpha (Homo sapiens) (UniProt P03372); assay: Partial agonist activity at ERalpha receptor in human HeLa cells assessed as activation of ERalpha-based transcription at 100 nM after 20 to 24 hrs by luciferase reporter gene assay

SMILES | Activity [1] | IC50 [2] [nM] | Activity [3] | Activity [4] | IC50 [5] [nM] | Activity [6] [%] | Activity [7] | Activity [8] | Activity [9] | Activity [10]
C[C@]12CC[C@@H]3c4ccc(O)cc4C[C@@H](CCCCC#Cc4ccc5ccccc5c4)[C@H]3[C@@H]1CC[C@@H]2O | Active | 176 | Active | Active |  |  |  |  |  | 
CCOC(=O)C(Cc1ccc(C#CCCCC[C@@H]2Cc3cc(O)ccc3[C@H]3CC[C@]4(C)[C@@H](O)CC[C@H]4[C@H]23)cc1)C(=O)OCC | Active | 126 | Active | Active | 151 |  |  |  |  | 
C[C@]12CC[C@@H]3c4ccc(O)cc4C[C@@H](CCCCc4cn(CC5COc6ccccc6O5)nn4)[C@H]3[C@@H]1CC[C@@H]2O (some centres not stated) |  | 24.4 |  |  | 41.2 | 50 | Active |  |  | 
C[C@]12CC[C@@H]3c4ccc(O)cc4C[C@@H](CCCCC#Cc4ccc(CN5CCCCC5)cc4)[C@H]3[C@@H]1CC[C@@H]2O | Active | 638 | Active | Active |  |  |  |  |  | 
C[C@]12CC[C@@H]3c4ccc(O)cc4C[C@@H](CCCCC#Cc4ccc(-c5ccno5)cc4)[C@H]3[C@@H]1CC[C@@H]2O |  |  | Active |  |  | 50 |  | inactive | inactive | Active
CC(C)(C)OC(=O)N1CCN(c2ccc(C#CCCCC[C@@H]3Cc4cc(O)ccc4[C@H]4CC[C@]5(C)[C@@H](O)CC[C@H]5[C@H]34)cc2)CC1 |  | 567 | Active |  | 436 |  |  | inactive | inactive | Active
C[C@]12CC[C@@H]3c4ccc(O)cc4C[C@@H](CCCCC#Cc4ccc(-n5cccc5)cc4)[C@H]3[C@@H]1CC[C@@H]2O | Active | 28.3 | Active | Active |  |  |  |  |  | 
CCOC(=O)CC(=O)c1ccc(C#CCCCC[C@@H]2Cc3cc(O)ccc3[C@H]3CC[C@]4(C)[C@@H](O)CC[C@H]4[C@H]23)cc1 | Active | 96.5 | Active | Active | 185 |  |  |  |  | 
